Reference: patent US20210017200A1, “Hydrocarbyl Tin Complex with Antitumor Activity and Preparation Method Thereof” (priority 2020, published 2021)

What was measured:
Format in all cases: cell-based
[1] = system: A549 (human lung cancer cells); settings: MTT, 72 hours
Procedure: (§1) MCF-7, HT-29, A549 and HepG2 cells are got from American Tissue Culture Collection, which are cultured with the culture medium containing 10% bovine fetal serum in a CO2-containing incubator at 37° C. The MTT method is used to detect cell proliferation and growth inhibition. The number of experimental cells is adjusted to obtain the absorbance at 570 nm, 6 concentrations are set for the compound test solution (0.1 nmol/L˜10 μmol/L). The cells are treated for 72 hours. At least 3 parallel experiments and 3 repeated experiments are conducted for each concentration. The IC50 value is determined by statistical analysis.
(§2) Taking cisplatin as the contrast, the in-vitro growth inhibitory activity of Compound 1 and Compound 2 on tumor cells are tested, including MCF7 (human breast cancer cells), HT-29 (human colon cancer cells), A549 (human lung cancer cells) and HepG2 (liver cancer cells).

[2] = system: MCF7 (human breast cancer cells); settings: MTT, 72 hours
Procedure: as §1, §2

[3] = system: HepG2 (liver cancer cells); settings: MTT, 72 hours
Procedure: as §1, §2

[4] = system: HT-29 (human colon cancer cells); settings: HT-29 cells, MTT, 72 hours
Procedure: as §1, §2

Tri-n-butyltin (IV) (4-methoxyphenyl) Acetylenyl Phosphonic Acid Derivatives [Compound 1]
IC50 [1]: 243 nM | IC50 [2]: 853 nM | IC50 [3]: 329 nM | IC50 [4]: 65 nM
